Measurements published in ChEMBL document CHEMBL1132579, “Self-organizing molecular field analysis: a tool for structure-activity studies” (J Med Chem, 1999).

Each compound was assayed against T1, Corticosteroid-binding globulin (Homo sapiens) (UniProt P08185) (assay: Compound was evaluated for its binding affinity towards the human corticosteroid binding globulin).
T1 sequence (whole entry): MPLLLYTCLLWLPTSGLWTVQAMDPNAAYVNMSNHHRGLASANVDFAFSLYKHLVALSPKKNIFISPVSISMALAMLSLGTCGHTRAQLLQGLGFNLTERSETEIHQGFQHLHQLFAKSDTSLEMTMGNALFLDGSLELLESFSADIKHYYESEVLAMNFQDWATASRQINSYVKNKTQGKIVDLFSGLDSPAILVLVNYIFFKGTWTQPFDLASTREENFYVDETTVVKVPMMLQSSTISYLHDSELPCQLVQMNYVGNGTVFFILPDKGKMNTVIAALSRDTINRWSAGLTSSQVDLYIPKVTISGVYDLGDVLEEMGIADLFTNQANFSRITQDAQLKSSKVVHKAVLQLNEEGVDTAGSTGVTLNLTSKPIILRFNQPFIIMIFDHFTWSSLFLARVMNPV
For `C[C@]12C=CC(=O)C=C1CC[C@@H]1[C@@H]2[C@@H](O)C[C@@]2(C)[C@H]1CC[C@]2(O)C(=O)CO`, the Log was -7.51 k. `CC(=O)[C@H]1[C@H](C)C[C@H]2[C@@H]3CCC4=CC(=O)CC[C@]4(C)[C@H]3CC[C@@]21C` was tested, and the Log was -7.12 k. Compound `CC(=O)[C@@]1(O)[C@H](O)C[C@H]2[C@@H]3CCC4=CC(=O)CC[C@]4(C)[C@H]3CC[C@@]21C` has a Log of -6.25 k. `CC(=O)OCC(=O)[C@@]1(O)CCC2C3CCC4=CC(=O)CC[C@]4(C)C3[C@@H](O)C[C@@]21C` (some centres undefined) gave a Log of -7.55 k. Compound `CC(=O)[C@H]1CCC2C3CCC4=CC(=O)CCC4C3CC[C@@]21C` (some centres undefined) has a Log of -6.82 k. In the case of `C[C@]12CC[C@H]3[C@@H](CCC4=CC(=O)CC[C@@H]43)[C@@H]1CC[C@@H]2O`, the Log is reported as -6.14 k. Compound `C[C@]12C[C@@H](O)[C@H]3[C@@H](CCC4=CC(=O)CC[C@@]43C)[C@@H]1CC[C@@H]2C(=O)CO` has a Log of -7.2 k. For `CC(=O)[C@H]1CC[C@H]2[C@@H]3CCC4=CC(=O)CC[C@]4(C)[C@H]3C(=O)C[C@]12C`, the Log was -6.78 k. `C[C@@H]1C[C@@]2(C)C(=CC1=O)CC[C@H]1[C@@H]3CC[C@](O)(C(=O)CO)[C@@]3(C)C[C@H](O)[C@@]12F` was tested, and the Log was -5.8 k.
